One test has as its system DGKδ and TACE. Kind of test: Co-immunoprecipitation of DGKδ and myc-TACE overexpressed in COS7 cells. Type of test: cell-based. The settings on record: COS7 cells after starvation (0.5% serum for 2 hrs). The text has this:
According to previous experiments, DGKδ appears to regulate the activity of TACE toward some of its substrates. Based on the data, however, it is not clear whether DGKδ directly activates TACE or indirectly affects its activity through another protein. It was hypothesized that in order to regulate TACE, DGKδ must associate with it or a complex of proteins that contains TACE. To address whether this occurs in vivo, the enzymes were overexpressed in COS7 cells and then co-immunoprecipitation analysis was performed. Myc-tagged TACE in cell lysates was immunoprecipitated with an anti-myc monoclonal antibody, and then immune complexes were analyzed for co-immunoprecipitation of DGKδ by immunoblotting. When cells were grown in normal medium (10% FBS) DGKδ clearly co-immunoprecipitated with TACE (FIG. 6 left). Controls using normal IgG for immunoprecipitation instead of anti-myc antibody, or where anti-myc was used, but myc-TACE was not included in the transfection, established the specificity of DGKδ-TACE co-immunoprecipitation. Two agents previously shown to induce TACE activity are serum factors and PMA. […] Thus, stimuli that increase TACE activity enhance an interaction between DGKδ and TACE, providing further evidence that DGKδ positively regulates TACE activity.

The test system of test [1] is β-APP shedding from embryonic fibroblasts. The experiment in a line: Release of endogenous β-APP from embryonic fibroblasts. Type of test: cell-based, mouse. The text has this: TACE is the only enzyme known to shed soluble TGFα, a process enhanced by stimulation with serum or PMA. Peschon, J. J. et al. Science 282, 1281-1284 (1998). It is not known whether or not the cytoplasmic tail of TACE is required to activate TGFα shedding. To test if DGKδ affected release of TGFα, the amounts of soluble TGFα in the culture media of dgkd^−/− and wild-type embryonic fibroblasts transfected with pro-TGFα were compared. […] Supporting a role for DGKδ in stimulated TGFα shedding, PMA-induced shedding of TGFα by dgkd^−/− cells was approximately 25% that of stimulated wild-type cells (FIG. 4A, left). […] Since TACE is the only enzyme known to shed TGFα, DGKδ was likely affecting TACE. TACE is also known to cleave β-APP, so the release of endogenous β-APP from embryonic fibroblasts was examined next. Reddy, P. et al. J. Biol. Chem. 275, 14608-14614 (2000).

The test system of test [2] is TNFα release from liver and spleen cell suspensions. Kind of test: TNFα ectodomain shedding from liver and spleen cell suspensions (ELISA). To be noted: LPS 5 μg/mL, PMA 50 ng/mL, liver and spleen cell suspensions of newborn mice. Type of test: cell-based, mouse. On the procedure:
TACE was originally identified as the enzyme that proteolytically releases TNFα from the cell surface. Black, R. et al. Nature 385, 729-733 (1997); Moss, M. L. et al. Nature 385, 733-736 (1997). Whether deleting DGKδ affected ectodomain shedding of TNFα from liver and spleen cell suspensions was tested—where hematopoietic activity is highest in newborn mice. Tamura, K. et al. Cell 102, 221-231 (2000). To induce release on TNFα, the cell suspensions were stimulated with lipopolysaccharide (LPS, […]), PMA (50 ng/mL), or a combination of LPS (5 μg/mL) and PMA (50 ng/mL). As measured by ELISA, both agents induced release of TNFα into the medium, with LPS inducing a five-fold increase and PMA causing a three-fold increase. Combining LPS and PMA increased TNFα shedding twenty-fold. […] Reddy, P. et al. J. Biol. Chem. 275, 14608-14614 (2000)
For orientation: An ELISA detects its analyte on a solid surface through an enzyme-linked reagent.

The test system of test [3] is phosphatidylinositol 5-kinases. To be noted: cited from earlier work.
Test [4] relates to phosphorylated ERK1 and 2. Kind of test: ERK phosphorylation after exogenous EGF in primary embryonic fibroblasts (immunoblot densitometry). Type of test: cell-based, mouse. The text has this: Whether signaling downstream of EGFR was affected in DGKδ mutant mice was also examined. Since the MAPK pathway is a major route of EGFR signaling, ERK phosphorylation was examined in cell lines developed from knockout mice. Prenzel, N., et al. Endocrine-Related Cancer 8, 11-31 (2001). In primary embryonic fibroblasts from wild-type mice, exogenous EGF caused a 2.2 fold increase in phosphorylated ERK1 and 2 as judged by densitometry of the immunoblot bands (FIG. 3). […] Activation of EGFR signaling is known to mediate stress fiber formation induced by serum factors. Prenzel, N., et al. Endocrine-Related Cancer 8, 11-31 (2001). […] Thus, whether DGKδ affects the activity of TACE was examined next.
For orientation: Immunoblotting shows a protein as a band on a membrane.

For the molecule `CCCCCCCCCCCCCC(=O)O[C@@H]1[C@@H](C)[C@@]2(O)[C@@H](C=C(CO)C[C@]3(O)C(=O)C(C)=C[C@@H]23)[C@@H]2C(C)(C)[C@]12OC(C)=O` [PMA], in the test with DGKδ and TACE, the “co-immunoprecipitation of DGKδ and TACE” value is “significantly increased”. Moreover, the “increase in β-APP shedding” value in test [1] (dgkd+/+ embryonic fibroblasts) is recorded as 6-8 fold; in test [1] (dgkd−/− embryonic fibroblasts), “moderate increase”. In addition, in test [2], the “increase in release of TNFα into the medium” value is reported as “three-fold”.
Take phosphatidic acid [PA]: the “activity of phosphatidylinositol 5-kinases in the presence of PA” value in test [3] is given as 8-14 fold.
Turning to EGF: exogenous EGF, EGF receptor ligand, the “increase in phosphorylated ERK1 and 2” value worked out at 2.1 fold in test [4] (primary embryonic fibroblasts from DGKδ null mice) and 2.2 fold in test [4] (primary embryonic fibroblasts from wild-type mice, densitometry of immunoblot bands).
For the molecule lipopolysaccharide [LPS], the “increase in release of TNFα into the medium” value in test [2] is on record as “five-fold”.
